Data reported in patent US20260374766A1, “METHODS FOR TREATING CANCER” (Antares Therapeutics, Inc., priority 2022, published 2026).
Where two headings read alike, the source gives them in different places.

Assays:
[1] = target: T1, p53 Y220C mutant protein (amino acid residues 94-293) (Homo sapiens, UniProt P04637, Y220C); assay: Surface Plasmon Resonance (SPR) assay, Kd_kinetic; type: binding; conditions: read-out: SPR P53 Y220C KD kinetic
T1 construct: p53 Y220C mutant protein (amino acid residues 94-293)
Procedure, shortened: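 Kd values come from fitting sensorgrams to a 1:1 binding model. Sensorgrams were recorded on a Biacore 8K at 16 or 20 °C in pH 7.5 Tris buffer with 100 mM NaCl, 1 mM DTT, detergents and 1% DMSO.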

[2] = target: T1, p53 Y220C mutant protein (amino acid residues 94-293); assay: Thermal Shift Assay (TSA), dTM; type: binding; conditions: for ΔTm at 10 µM: 10 uM compound; for ΔTm at 100 µM: 100 uM compound, read-out: TSA P53 Y220C dTM (100 uM)
Procedure, shortened: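 5 μM protein + 10 μM or 100 μM cpd, 3 h, 20 °C; 20 mM HEPES pH7.4, 100 mM NaCl, 0.01% Pluronic F-127, 1% DMSO, Sypro Orange 400-fold dil. Ramp 30→50 °C, 0.03 °C/s. TM by Boltzmann two-state fit.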

[3] = target: p53 Y220C (Homo sapiens, UniProt P04637, Y220C); assay: Luciferase Reporter Assay (Luc), p53 response element, NClH1299 cells with inducible p53 Y220C; type: cell-based; conditions: luciferase reporter, NClH1299 inducible p53 Y220C, 6 hour; for AC50: read-out: Luc P53 Y220C AC50
Procedure, shortened: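 Steps: seed 5,000 cells/well; induce mutant p53 with 0.5 ug/mL doxycycline for 24 h; treat with compound 6 h; add equal volume One-Glo, shake 5 min at room temperature; measure luciferase immediately.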

[4] = test system: NUGC3 p53 Y220C; assay: Cell Proliferation Assay (CellTiter-Glo, CTG), NUGC3 p53 Y220C; type: cell-based; conditions: Homo sapiens, NUGC-3, 120 h, CellTiter-Glo, 5 days
Procedure, shortened: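 NClH1299 lines stably transduced with Tet-inducible p53 Y220C or R273H, plus NUGC3, were treated with compound for 5 days at 250-500 cells/well. IC50 derived from CellTiter-Glo luminescent signal after 10 min room-temperature incubation.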

[5] = test system: H1299 p53 Y220C; assay: Cell Proliferation Assay (CellTiter-Glo, CTG), H1299 p53 Y220C (NClH1299-inducible p53 Y220C); type: cell-based; conditions: Homo sapiens, NCI-H1299, 120 h, CellTiter-Glo, 5 days
Procedure, shortened: (§1)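 Tet-One inducible p53 Y220C or R273H constructs were stably introduced into NCI-H1299 by lentiviral transduction; NUGC3 was used as is. Cells (250-500 per well) were exposed to compound for 5 days, then CellTiter-Glo was added for 10 min at room temperature and IC50 was calculated from luminescence.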

[6] = test system: H1299 p53 R273H; assay: Cell Proliferation Assay (CellTiter-Glo, CTG), H1299 p53 R273H (NClH1299-inducible p53 R273H); type: cell-based; conditions: Homo sapiens, NCI-H1299, 120 h, CellTiter-Glo, 5 days
Procedure, shortened: as §1

[7] = thermal shift, read-out: TSA P53 Y220C dTM (10 uM)
[8] = 10 uM tool compound as positive control
[9] = p53 Y220C, read-out: TSA P53 Y220C dTM
[10] = NClH1299-inducible p53 Y220C cells
[11] = NClH1299-inducible p53 R273H cells

| Compound | Kd ([1]; SPR, kinetic KD, p53 Y220C) [µM] | ΔTm at 10 µM [2, 7] [°C] | ΔTm at 100 µM ([2]; thermal shift) [°C] | Emax [3, 8] [%] | AC50 [3] [µM] | IC50 ([4]; NUGC3 p53 Y220C) [µM] | IC50 ([5]; H1299 p53 Y220C) [µM] | IC50 ([6]; H1299 p53 R273H) [µM] | Kd ([1]; SPR, p53 Y220C) [µM] | ΔTm at 10 µM [2, 9] [°C] | AC50 ([3]; AC50) [µM] | Emax ([3]; Emax) [%] | IC50 ([4]; NUGC3 cells) [µM] | IC50 [5, 10] [µM] | IC50 [6, 11] [µM] | Kd [1] [µM] |
| --- | --- | --- | --- | --- | --- | --- | --- | --- | --- | --- | --- | --- | --- | --- | --- | --- |
| CNC(=O)c1ccc(NCC#Cc2nc3c(N[C@@H]4CCN(C)C[C@@H]4F)cccn3c2SC(F)(F)F)cc1 [Example 163] | < 0.01 | ≥ 10 | ≥ 10 | > 90 | < 0.75 | < 0.75 | < 0.75 | ≥ 10 |  |  |  |  |  |  |  |  |
| CN1CC[C@@H](Nc2cccn3c(CC(F)(F)F)c(C#C[C@H](O)c4ccccc4)nc23)[C@@H](F)C1 [Example 73, (1R)-3-(8-{[(3S,4R)-3-fluoro-1-methylpiperidin-4-yl]amino}-3-(2,2,2-trifluoroethyl)imidazo[1,2-a]pyridin-2-yl)-1-phenylprop-2-yn-1-ol] | 0.1 to 1 |  | 5 to 10 | < 70 | > 3 | 1.5 to 3 | 1.5 to 3 | < 5 |  |  |  |  |  |  |  |  |
| CNC(=O)c1ccc(NCC#Cc2nc3c(N[C@@H]4CCN(C)C[C@@H]4F)cccn3c2SC(F)(F)F)cn1 [Example 94, 5-{[3-(8-{[(3S,4R)-3-fluoro-1-methylpiperidin-4-yl]amino}-3-[(trifluoromethyl)sulfanyl]imidazo[1,2-a]pyridin-2-yl)prop-2-yn-1-yl]amino}-N-methylpyridine-2-carboxamide] | < 0.01 | ≥ 10 | ≥ 10 | > 90 | < 0.75 | < 0.75 | < 0.75 | ≥ 10 |  |  |  |  |  |  |  |  |
| CNC(=O)CN1CC[C@@H](Nc2nccn3c(SC(F)(F)F)c(C#CCNc4cc(C(=O)NC)ccc4OC)cc23)[C@@H](F)C1 [Example 352] |  |  |  |  |  |  |  |  | < 0.01 | ≥ 10 | < 0.75 | > 90 | < 0.75 | < 0.75 | ≥ 10 |  |
| CNC(=O)c1ccc(O)c(NCC#Cc2cc3c(N[C@@H]4CCN(C)C[C@@H]4F)nccn3c2SC(F)(F)F)c1 [Example 123] | < 0.01 | ≥ 10 |  | > 90 | < 0.75 | < 0.75 | < 0.75 | ≥ 10 |  |  |  |  |  |  |  |  |
| COc1cc(S(C)(=O)=O)ccc1NCC#Cc1cc2c(N[C@@H]3CCN(C)C[C@@H]3F)nccn2c1SC(F)(F)F [Example 342] |  |  |  |  |  |  |  |  |  | ≥ 10 | < 0.75 | > 90 | < 0.75 | < 0.75 | 5 to 8 | < 0.01 |
| CN1CC[C@@H](Nc2cccn3c(CC(F)(F)F)c(C#CCCN)nc23)[C@@H](F)C1 [Example 74, (3S,4R)—N-[2-(4-aminobut-1-yn-1-yl)-3-(2,2,2-trifluoroethyl)imidazo[1,2-a]pyridin-8-yl]-3-fluoro-1-methylpiperidin-4-amine] | 0.1 to 1 |  | 5 to 10 | < 70 | > 3 | > 3 | > 3 | ≥ 10 |  |  |  |  |  |  |  |  |
| CNC(=O)c1cnc(OC)c(NCC#Cc2nc3c(N[C@@H]4CCN(C)C[C@@H]4F)cccn3c2SC(F)(F)F)c1 [Example 141] | < 0.01 | ≥ 10 | ≥ 10 | 80 to 90 | < 0.75 | < 0.75 | < 0.75 | ≥ 10 |  |  |  |  |  |  |  |  |
| C[C@@H](O)C#Cc1nc2c(N[C@@H]3CCN(C)C[C@@H]3F)cccn2c1CC(F)(F)F [Example 70, (2R)-4-(8-{[(3S,4R)-3-fluoro-1-methylpiperidin-4-yl]amino}-3-(2,2,2-trifluoroethyl)imidazo[1,2-a]pyridin-2-yl)but-3-yn-2-ol] | 0.01 to 0.1 |  | 5 to 10 | < 70 | > 3 | > 3 | > 3 | ≥ 10 |  |  |  |  |  |  |  |  |
| CCc1c(C#CCNc2ccc(S(C)(=O)=O)cc2OC)nc2c(NC3CCN(C)CC3)cccn12 [Example 16, N-(3-ethyl-2-{3-[(4-methanesulfonyl-2-methoxyphenyl)amino]prop-1-yn-1-yl}imidazo[1,2-a]pyridin-8-yl)-1-methylpiperidin-4-amine] | 0.01 to 0.1 |  | 5 to 10 | < 70 | > 3 | > 3 | > 3 | 5 to 8 |  |  |  |  |  |  |  |  |
| CNC(=O)c1ccc(NCC#Cc2nc3c(NCC4(F)CNC4)cccn3c2SC(F)(F)F)c(OC)c1 [Example 197] | 0.01 to 0.1 | 5 to 10 | ≥ 10 | 80 to 90 | > 3 | > 3 | > 3 | ≥ 10 |  |  |  |  |  |  |  |  |
| CNC(=O)c1cc(F)c(OC)c(NCC#Cc2nc3c(N[C@@H]4CCN(C)C[C@@H]4F)nccn3c2SC(F)(F)F)c1 [Example 347] |  |  |  |  |  |  |  |  | < 0.01 | ≥ 10 | < 0.75 | > 90 | < 0.75 | < 0.75 | ≥ 10 |  |
| CNC(=O)c1ccc(NCC#Cc2nc3c(N[C@H]4CCC(=O)NC4)cccn3c2SC(F)(F)F)c(OC)c1 [Example 183] | 0.01 to 0.1 | 5 to 10 | 5 to 10 | 80 to 90 | 1.5 to 3 | 0.75 to 1.5 | 1.5 to 3 | ≥ 10 |  |  |  |  |  |  |  |  |
| CNC(=O)c1ccc(NCC#Cc2nc3c(N[C@H]4CCNC(=O)C4)cccn3c2SC(F)(F)F)c(OC)c1 [Example 174] | < 0.01 | ≥ 10 | ≥ 10 | 80 to 90 | 1.5 to 3 | 0.75 to 1.5 | 1.5 to 3 | ≥ 10 |  |  |  |  |  |  |  |  |
| CNC(=O)c1ccc(NCC#Cc2nc3c(N[C@@H]4CCN(C)C[C@@H]4F)cccn3c2CC(F)(F)F)c(OC(F)(F)F)c1 [Example 53, 4-{[3-(8-{[(3S,4R)-3-fluoro-1-methylpiperidin-4-yl]amino}-3-(2,2,2-trifluoroethyl)imidazo[1,2-a]pyridin-2-yl)prop-2-yn-1-yl]amino}-N-methyl-3-(trifluoromethoxy) benzamide] | 0.01 to 0.1 |  | 5 to 10 | 70 to 80 | > 3 | 1.5 to 3 | 1.5 to 3 | ≥ 10 |  |  |  |  |  |  |  |  |
| COc1ccc(C(N)=O)cc1NCC#Cc1nc2c(N[C@@H]3CCN(C)C[C@@H]3F)cccn2c1SC(F)(F)F [Example 138] | < 0.01 | ≥ 10 | ≥ 10 | 80 to 90 | < 0.75 | < 0.75 | < 0.75 | 8 to 10 |  |  |  |  |  |  |  |  |
| CNC(=O)c1ccc(NCC#Cc2nc3c(N[C@@H]4CCN(C)C[C@@H]4F)cccn3c2CC(F)(F)F)c(Cl)c1 [Example 55, 3-chloro-4-{[3-(8-{[(3S,4R)-3-fluoro-1-methylpiperidin-4-yl]amino}-3-(2,2,2-trifluoroethyl)imidazo[1,2-a]pyridin-2-yl)prop-2-yn-1-yl]amino}-N-methylbenzamide] | 0.01 to 0.1 |  | ≥ 10 | > 90 | 0.75 to 1.5 | 0.75 to 1.5 | 0.75 to 1.5 | ≥ 10 |  |  |  |  |  |  |  |  |
| CNC(=O)c1ccc(NCC#Cc2nc3c(N[C@@H]4CCN(C)C[C@@H]4F)cccn3c2CC(F)(F)F)c(C(F)(F)F)c1 [Example 54, 4-{[3-(8-{[(3S,4R)-3-fluoro-1-methylpiperidin-4-yl]amino}-3-(2,2,2-trifluoroethyl)imidazo[1,2-a]pyridin-2-yl)prop-2-yn-1-yl]amino}-N-methyl-3-(trifluoromethyl)benzamide] | 0.01 to 0.1 |  | ≥ 10 | 70 to 80 | > 3 | > 3 | > 3 | ≥ 10 |  |  |  |  |  |  |  |  |
